# From US20040186089A1 (priority 2001, published 2004)
# Several values for one entry are separate records, joined by “and”; a condition that tells them apart may be missing. Identical values can stand only once.
# Key:
# Bacillus thuringiensis [1] = conditions: cited from earlier work
# [2] = tested on: Bacillus anthracis ATCC 14578; assay type: cell-based; conditions: for MIC: unit assumed
# Bacillus anthracis [3] = conditions: in vivo; cited from earlier work
# Bacillus thuringiensis [4] = assay type: cell-based
# Bacillus cereus = assay type: cell-based
# Bacillus anthracis [5] = conditions: cited from earlier work
Compound,MIC [2],susceptibility of Bacillus anthracis (Bacillus anthracis [5]),further results
CC1(C)S[C@@H]2[C@H](NC(=O)[C@H](N)c3ccccc3)C(=O)N2[C@H]1C(=O)O [ampicillin],,,resistance of Bacillus thuringiensis (Bacillus thuringiensis [1]): resistant
"C[C@@H](O)[C@H]1C(=O)N2C(C(=O)O)=C(SCCN=CN)C[C@H]12 [Imipenem, [5R-[5α,6α(R*)]]-6-(1-hydroxyethyl)-3-[[2-[(iminomethyl)amino]ethyl]thio]-7-oxo-1-azabicyclo[3.2.0]hept-2-ene-2-carboxylic acid monohydrate]",0.047 µg/mL,,
O=C(O)c1cn(C2CC2)c2cc(N3CCNCC3)c(F)cc2c1=O [Ciprofloxacin],0.064 µg/mL,,response of people (Bacillus anthracis [3]): responded well; resistance of Bacillus thuringiensis (Bacillus thuringiensis [1]): not resistant
CCn1cc(C(=O)O)c(=O)c2cc(F)c(N3CCNCC3)cc21 [Norfloxacin],,,Disk Diffusion zone (Bacillus thuringiensis [4]): 27 mm and 24 mm; Disk Diffusion zone (Bacillus cereus): 22 mm and 23 mm and 21 mm and 25 mm
CC[C@H]1OC(=O)[C@H](C)[C@@H](O[C@H]2C[C@@](C)(OC)[C@@H](O)[C@H](C)O2)[C@H](C)[C@@H](O[C@@H]2O[C@H](C)C[C@H](N(C)C)[C@H]2O)[C@](C)(O)C[C@@H](C)C(=O)[C@H](C)[C@@H](O)[C@]1(C)O [erythromycin],,susceptible,
"C[C@@H](O)[C@H]1C(=O)N2C(C(=O)O)=C(S[C@@H]3CN[C@H](C(=O)Nc4cccc(C(=O)O)c4)C3)[C@H](C)[C@H]12 [Ertapenem, (1R,5S,6S,8R,2′S,4′S)-2-(2-(3-carboxyphenylcarbamoyl)pyrrolidin-4-ylthio)-6-(1-hydroxyethyl)-1-methylcarbapenem-3-carboxylic acid]",0.032 µg/mL,,susceptibility of Bacillus anthracis [2]: susceptible
gentamicin,,susceptible,
CN(C)[C@@H]1C(O)=C(C(N)=O)C(=O)[C@@]2(O)C(O)=C3C(=O)c4c(O)cccc4[C@@](C)(O)[C@H]3C[C@@H]12 [Tetracycline],0.064 µg/mL,,
Penicillin,0.047 µg/mL,susceptible,resistance of Bacillus thuringiensis (Bacillus thuringiensis [1]): resistant
O=C(N[C@H](CO)[C@H](O)c1ccc([N+](=O)[O-])cc1)C(Cl)Cl [chloramphenicol],,susceptible,
CO[C@@]1(NC(=O)Cc2cccs2)C(=O)N2C(C(=O)O)=C(COC(N)=O)CS[C@@H]21 [Cefoxitin],6 µg/mL,,
